Key:
CD57BL/6 mice = assay: IgA induction by spleen cDCs stimulated with OVA, CpG ODN and GM-CSF, intraperitoneally administered to mice; format: in vivo; details: spleen cDCs stimulated 24 hours with OVA 100 μg/ml and adjuvant, given i.p. Day 0 and Day 14; oral OVA Day 21 to 25; ELISA Day 32
Description: Spleen cDCs were stimulated for 24 hours using ovalbumin (OVA; 100 μg/ml) as an antigen and CpG ODN 1668 (1 μg/ml) only or the combination of CpG ODN and GM-CSF (10 ng/ml) as an adjuvant.
Here, the fractioning of murine small intestine mucosa lamina propria cells with the dendritic cell marker CD11c and the macrophage marker CD11b produces the 4 groups: R1 (dendritic cells) (CD11c high CD11b low), R2 (dendritic cells) (CD11c high CD11b high), R3 (macrophages) (CD11c int CD11b int), R4 (acidophiles) (CD11c int CD11b high). The R2 dendritic cells specifically express Raldh2 and induce the Th17 response and the IgA production (Non-Patent Literature 1). Therefore, the R2 dendritic cells were stimulated with OVA (100 μg/ml) and CpG ODN 1668 (1 μg/ml) as positive control. Spleen cDCs were stimulated with OVA (100 μg/ml) and CpG ODN 1668 (1 μg/ml) with or without GM-CSF (10 ng/ml).
On Day 0 and Day 14 after the stimulation, dendritic cells (each 5×10^4 cells) (or PBS) which took up the antigen were intraperitoneally administered into CD57BL/6 mice. On Day 21 to Day 25, 1 mg/mouse of OVA was orally administered daily and, on Day 32, total of antigen-specific IpG in serum and antigen-specific IgA in feces were measured by ELISA.

[1] = system: pulmonary mucosa lamina propria cells; assay: Cytokine production of pulmonary mucosa lamina propria cells after intranasal booster; format: in vivo, mice; details: 7 days after intranasal OVA, cultured 4 days with OVA 100 μg/ml
Description: IFA, IFA+OVA+CpG ODN, IFA+OVA+curdlan, and IFA+OVA+CpG ODN+curdlan were administered to mice by intramuscular injection, respectively. On Day 35, 1 μg/mouse of OVA was administered by intranasal administration to perform booster immunization, and, 7 days later antigen-specific total IgG in the serum and IgA in the bronchoalveolar lavage fluid were measured by ELISA.
In the experiment of 9, 7 days after the intranasal administration of OVA, pulmonary mucosa lamina propria cells were extracted from the mice and cultured in the presence of the antigen (OVA 100 μg/ml) for 4 days and IFN-γ, IL-4, and IL-17 production was measured by ELISA.

Dectin-1 = assay: Expression of Dectin-1 in spleen-derived dendritic cells with CpG ODN stimulation; format: cell-based; details: spleen-derived dendritic cells stimulated with CpG ODN
Description: Next, the expression of Dectin-1, which is a receptor that recognizes β-1,3-glucan, in dendritic cells was measured. The summary and the result of the experiment are illustrated in FIG. 12. As illustrated in the left panel in the figure, it was confirmed that, in spleen-derived dendritic cells, the expression of Dectin-1 is not high, but the expression of Dectin-1 increases more than 3 times by stimulating the cells with CpG ODN. Dectin-1 is known to induce the Th17 response. These indicate the mechanism of the present invention in which the addition of both of CpG ODN and β-1,3-glucan to the adjuvant makes dendritic cells easy to receive the stimulation with β-1,3-glucan and induces the Th17 response.

Raldh2 = assay: Induction of Raldh2 mRNA expression in spleen cDCs (RT-PCR); format: cell-based; details: spleen cDCs stimulated 24 hours
Description: Next, zymosan (component of yeast cell wall of Saccharomyces cerevisiae; 25 ng/ml) and curdlan ((β-1,3-glucan derived from Agrobacterium spp., Alcaligenes spp.; 25 ng/ml) were used as glucan-based compound. Spleen cDCs were stimulated with these substances for 24 hours and, after collecting RNA, the expression of Raldh2 mRNA was measured by RT-PCR.

Molecule | antigen-specific IgA in feces (CD57BL/6 mice) | IFN-γ production [1] | increase of expression of Dectin-1 (Dectin-1) | expression of Raldh2 mRNA (Raldh2)
CpG ODN 1668 | induced little production of IgA | induced | more than 3 times | –
curdlan | – | induced | – | induced the expression of Raldh2
granulocyte monocyte colony stimulating factor (protein, UniProt P01587 18-141, looked up, inducer of expression of Raldh2; added with CpG ODN to stimulate spleen cDCs) Granulocyte-macrophage …: APTRSPITVTRPWKHVEAIKEALNLLDDMPVTLNEEVEVVSNEFSFKKLTCVQTRLKIFEQGLRGNFTKLKGALNMTASYYQTYCPPTPETDCETQVTTYADFIDSLKTFLTDIPFECKKPGQK | induced IgA production more than the R2 dendritic cells | – | – | induced the expression of Raldh2
